Ahx = NCCCCCC(=O)O
Key:
[1] = tested on: plasma cholesterol; assay: Plasma cholesterol reduction in apoE null mice after a single dose; assay type: in vivo; settings: single dose in saline vehicle, at both 50 and 100 μg/mouse
Method: The study was carried out in apoE null mice (n=4 animals/group). The time points show the plasma cholesterol levels at the indicated times following a single dose administration. A single dose was administered using a saline vehicle.

[2] = tested on: VLDL; assay: Interaction of peptide with VLDL, displacement of apo E from VLDL
Method: It was determined that in MEF 1 cells with induced LDL receptors, LDL internalization was enhanced three, five and seven times by Ac-mE-18A-NH2, Ac-hE-18A-NH2, and Ac-hE(R)-18A-NH2 respectively. All three peptides increased degradation of LDL by 100 percent. […] However, only Ac-hE-18A-NH2-associated VLDL enhanced the uptake of VLDL six fold and degradation three fold compared to VLDL alone in spite of the absence of apoE. The LDL binding to fibroblasts in the presence of these peptides was not saturable, however, over the LDL concentration range studied.

[3] = tested on: MEF 1 cells with induced LDL receptors; assay: Uptake and degradation of human LDL by cells (LDL internalization, LDL degradation); assay type: cell-based
Source text: (§1) To test the hypothesis that a minimal arginine-rich Apo E receptor binding domain (141-150) was sufficient to enhance low density lipoprotein (LDL) and very low density lipoprotein (VLDL) uptake and clearance when covalently linked to a class A amphipathic helix, a peptide was synthesized in which the receptor binding domain of human Apo E, LRKLRKRLLR (SEQ ID NO:4) (hApo E[141-150] also referred to as “hE”), was linked to 18A, a well characterized high affinity lipid-associating peptide (DWLKAFYDKVAEKLKEAF (SEQ ID NO:5), also referred to as “18A”) to produce a peptide denoted as hApo E[141-150]-18A (also referred to as “hE-18A”) (see U.S. Pat. No. 6,506,880, which is hereby incorporated by reference in its entirety for its teaching of specific Apo E mimetics and their uses). Also synthesized was an end protected analog of hE-18A, denoted Ac-hE18A-NH2. […] The effect of the dual character peptides on the uptake and degradation of human LDL/VLDL by cells was then determined.
(§2) It was determined that in MEF 1 cells with induced LDL receptors, LDL internalization was enhanced three, five and seven times by Ac-mE-18A-NH2, Ac-hE-18A-NH2, and Ac-hE(R)-18A-NH2 respectively. […]

[4] = tested on: cells; assay: Uptake and degradation of peptide-associated VLDL by cells; assay type: cell-based; settings: peptide-associated VLDL compared to VLDL alone, in the absence of apoE
Source text: as §1, §2

Substance	reducing plasma cholesterol [1]	displacement of apo E from VLDL [2]	LDL internalization enhanced [3]	increased degradation of LDL [3]	enhanced degradation of VLDL [4]	enhanced uptake of VLDL [4]
Ac-Aha-LRRLRRRLLR-DWLKAFYDKVAEKLKEAF-NH2 ({Ac-Ahx}-LRRLRRRLLRDWLKAFYDKVAEKLKEAF-NH2; SMILES CC(=O)NCCCCCC(=O)N[C@@H](CC(C)C)C(=O)N[C@@H](CCCNC(=N)N)C(=O)N[C@@H](CCCNC(=N)N)C(=O)N[C@@H](CC(C)C)C(=O)N[C@@H](CCCNC(=N)N)C(=O)N[C@@H](CCCNC(=N)N)C(=O)N[C@@H](CCCNC(=N)N)C(=O)N[C@@H](CC(C)C)C(=O)N[C@@H](CC(C)C)C(=O)N[C@@H](CCCNC(=N)N)C(=O)N[C@@H](CC(=O)O)C(=O)N[C@@H](Cc1c[nH]c2ccccc12)C(=O)N[C@@H](CC(C)C)C(=O)N[C@@H](CCCCN)C(=O)N[C@@H](C)C(=O)N[C@@H](Cc1ccccc1)C(=O)N[C@@H](Cc1ccc(O)cc1)C(=O)N[C@@H](CC(=O)O)C(=O)N[C@@H](CCCCN)C(=O)N[C@H](C(=O)N[C@@H](C)C(=O)N[C@@H](CCC(=O)O)C(=O)N[C@@H](CCCCN)C(=O)N[C@@H](CC(C)C)C(=O)N[C@@H](CCCCN)C(=O)N[C@@H](CCC(=O)O)C(=O)N[C@@H](C)C(=O)N[C@@H](Cc1ccccc1)C(N)=O)C(C)C) [AC-Aha-[R]hE18A-NH2]	highly effective					
Ac-D-W-L-K-A-F-Y-D-K-V-A-E-K-L-K-E-A-F-NH2 (Ac-DWLKAFYDKVAEKLKEAF-NH2) [Ac-18A-NH2, control peptide; 18A is the lipid-associating peptide …, reference compound]		interacted with VLDL to cause a displacement of apo E from VLDL				
Ac-LRKLRKRLLRDWLKAFYDKVAEKLKEAF-NH2 [Ac-hE-18A-NH2]		interacted with VLDL to cause a displacement of apo E from VLDL	five	100%	three	six
